Measurements taken from article PMC6546852, “Carbonyl Reduction of Flubendazole in the Human Liver: Strict Stereospecificity, Sex Difference, Low Risk of Drug Interactions” (Frontiers in Pharmacology, 2019).

Tests used:
[1] = target: T1, carbonyl reductase 1 (CBR1) (Homo sapiens, UniProt P16152); test: Inhibition of flubendazole reduction in pooled human liver cytosol by CBR1 inhibitors; type: biochemical; settings: 10 µM FLU, NADPH, inhibitor 0-50 µM
T1 sequence (P16152 2-277 limits assumed): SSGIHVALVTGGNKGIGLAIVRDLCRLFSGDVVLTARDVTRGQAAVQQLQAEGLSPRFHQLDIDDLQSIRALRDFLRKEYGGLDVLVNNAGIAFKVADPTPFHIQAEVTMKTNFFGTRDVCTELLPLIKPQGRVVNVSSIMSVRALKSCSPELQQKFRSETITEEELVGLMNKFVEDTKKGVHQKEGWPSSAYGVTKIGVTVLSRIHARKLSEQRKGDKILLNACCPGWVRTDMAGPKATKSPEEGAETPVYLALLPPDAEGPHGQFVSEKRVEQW

human recombinant CBR1 = target: T2, human recombinant CBR1 (Homo sapiens, UniProt P16152); test: Specific activity of human recombinant CBR1 toward substrates (NADPH consumption at 340 nm); type: biochemical; settings: 10 µM substrate
T2 construct: purchased MyBioSource (San Diego, CA, USA)
T2 sequence (P16152 1-277): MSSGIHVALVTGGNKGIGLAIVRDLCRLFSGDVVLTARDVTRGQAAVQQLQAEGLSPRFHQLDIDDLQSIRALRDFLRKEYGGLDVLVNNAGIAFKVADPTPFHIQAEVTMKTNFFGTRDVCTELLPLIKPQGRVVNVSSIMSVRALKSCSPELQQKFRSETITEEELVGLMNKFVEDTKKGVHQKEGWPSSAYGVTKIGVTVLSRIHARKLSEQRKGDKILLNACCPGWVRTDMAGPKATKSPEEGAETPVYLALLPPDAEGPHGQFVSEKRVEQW
Description: The human recombinant CBR1 activity was assayed using a slight modification of previously published method (Mate et al., [2008]). The assay was performed in four replicates and was repeated three times. […] The activity of CBR1 was assessed using 10-μM concentration of the substrates, MEN, DOX, and FLU. The consumption of NADPH in the reaction mixture, which served for the assessment of the reductase activity, was determined spectrophotometrically at 340 nm at 37°C using the microplate reader Tecan Infinite M200.

[2] = Reduction of flubendazole in pooled human liver cytosol (chiral HPLC of FLUR enantiomers); type: in vitro ADME; settings: human liver subcellular fractions
Description: Frozen pieces of liver were thawed at room temperature for up to 15 min and individual livers were homogenized in a 0.1 M sodium phosphate buffer, pH 7.4 at the ratio of 1:6 (v/v), using a Potter-Elvehjem homogenizer and sonication with Sonopolus (Bandelin, Germany). The suspension of the SW480 cells was homogenized using sonication only. The subcellular fractions were isolated by differential centrifugation of the homogenates (Gillette, [1971]) and stored at −80°C. Protein concentrations were assayed using the bicinchoninic acid (BCA) assay according to the manufacturer’s instructions (Sigma-Aldrich).
The cytosolic or microsomal fraction was incubated with FLU (10 μM). […]
Details concerning the HPLC analyses including validations were described in Nobilis et al. ([2008]). A chiral HPLC analysis was employed for the determination of reduced FLU (FLUR) enantiomers—(+)-FLUR and (−)-FLUR; concentrations of FLU, (+)-FLUR, and (−)-FLUR in the samples were determined using an internal standard method (I.S., albendazole). […] A tandem of an UV photodiode-array and a fluorescence detector was used for the determination of the abovementioned benzimidazole compounds.

[3] = Water solubility of flubendazole; type: physicochemical; settings: allowed only 10 µM as highest concentration in incubation mixtures
P-glycoprotein = test system: P-glycoprotein; set-up: method as in earlier work; settings: ref Spagnuolo et al., 2010, Kralova et al., 2013, Michaelis et al., 2015, 2016; cited from earlier work
[4] = Kinetics of flubendazole reduction ((+)-FLUR formation) in pooled human liver cytosol; type: in vitro ADME; settings: for Clint (intrinsic clearance, V′max/K′m) / K’m (apparent Michaelis constant) / V’max (apparent maximal velocity of (+)-FLUR formation): pooled cytosol; for V’max (apparent maximal velocity of (+)-FLUR formation): 0-10 µM FLU
[5] = test system: doxorubicin reduction in pooled human liver cytosol; test: Flubendazole effect on doxorubicin reduction (doxorubicinol formation) in pooled human liver cytosol; type: biochemical; settings: for Doxorubicinol—cytosol (percent of the residual activity): 20 µM doxorubicin, NADPH
[6] = test system: doxorubicin reduction in cytosol of cancer cells SW480; test: Flubendazole effect on doxorubicin reduction (doxorubicinol formation) in cytosol of cancer cells SW480; type: biochemical, human; settings: for Doxorubicinol—SW480 (percent of the residual activity): 20 µM doxorubicin, NADPH

| Compound | IC50 [1] | Specific activity of human recombinant CBR1 toward the substrate (in words) (human recombinant CBR1) | Stereospecificity of carbonyl reduction (in words) [2] | Water solubility (in words) [3] | P-glycoprotein substrate (in words) (P-glycoprotein) | Clint (intrinsic clearance, V′max/K′m) ([4]; NADH coenzyme) | K’m (apparent Michaelis constant) ([4]; NADH coenzyme) | V’max (apparent maximal velocity of (+)-FLUR formation) ([4]; NADH coenzyme) | Clint (intrinsic clearance, V′max/K′m) ([4]; NADPH coenzyme) | K’m (apparent Michaelis constant) ([4]; NADPH coenzyme) | V’max (apparent maximal velocity of (+)-FLUR formation) ([4]; NADPH coenzyme) | Hepatic intrinsic clearance (in words) ([4]; pooled human liver cytosol) | Doxorubicinol—cytosol (percent of the residual activity) ([5]; 2 µM flubendazole) | Doxorubicinol—cytosol (percent of the residual activity) ([5]; 10 µM flubendazole) | Inhibition of DOX reduction (in words) ([5]; human liver cytosol, FLU 2 and 10 µM) | Doxorubicinol—SW480 (percent of the residual activity) ([6]; 2 µM flubendazole) | Doxorubicinol—SW480 (percent of the residual activity) ([6]; 10 µM flubendazole) | Inhibition of DOX reduction (in words) ([6]; SW480 cytosol, FLU 2 and 10 µM) |
| --- | --- | --- | --- | --- | --- | --- | --- | --- | --- | --- | --- | --- | --- | --- | --- | --- | --- | --- |
| O=c1cc(-c2ccc(O)c(O)c2)oc2cc(O)cc(O)c12 [LUT, luteolin] | 8.21 ± 3.71 µM | – | – | – | – | – | – | – | – | – | – | – | – | – | – | – | – | – |
| CC1=CC(=O)c2ccccc2C1=O [MEN, menadione] | 0.34 ± 0.26 µM | highest | – | – | – | – | – | – | – | – | – | – | – | – | – | – | – | – |
| COC(=O)Nc1nc2cc(C(=O)c3ccc(F)cc3)ccc2[nH]1 [flubendazole, [5-(4-fluorobenzoyl)-1H-benzimidazol-2-yl]-carbamic acid methyl ester] | – | significantly lower than to MEN | strictly stereospecific | poor | not a substrate for P-glycoprotein | 0.000012 min⁻¹ | 13.34 ± 3.07 µM | 0.161 ± 0.024 nM/min | 0.000023 min⁻¹ | 19.91 ± 2.49 µM | 0.466 ± 0.043 nM/min | very low | 98.0 ± 3.4% | 91.4 ± 4.9% | did not inhibit | 97.6 ± 3.4% | 96.7 ± 2.7% | did not inhibit |
